29 sequences from the supplement of paper PMC11208160 can be followed below.
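Note: IS621 bridge recombinase in Escherichia coli cells against a fixed T5 target plasmid.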

A short description of this data set: recombinant UMI read abundance after kanamycin selection (control-corrected) (log10(CPM+1)); higher = more efficient recombination; extreme values may be limits of the assay; sequences stand for … in AGTGCAGAGAAAATCGGCCAGTTTTCTCTGCCTGCAGTCCGCATGCCGTGGGACCCCTTGGGTTCTAACCTGTTGCCTAGATTTATGCAGCGGACTGCCTTTCTCCCAAAGTGATAAACCGG…AGGTTGGTTTCACT; site = the 11-nt donor. An outline of the steps: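 Each donor and donor-binding-loop pair was tracked by a 12-nt UMI on a plasmid carrying a promoterless kanamycin gene. With a second plasmid supplying a fixed target and T7-inducible IS621 bridge recombinase, the pool was plated in Escherichia coli on IPTG (0.07 mM) plus kanamycin or unselected. Sequencing of recombinant UMIs across the donor–target junction gave counts expressed as log10(CPM+1) after replicate averaging and control-derived scaling.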
On to “CGCCTAGCATGGACCGGTTTTCCCGGTAATCCGTATTTGTT (site CGCCTAGCTAA)”, for which the “recombinant UMI read abundance (log10)” value stood at 0.

Turning to “CGCCTAGCATGGACCGGTTTTCCCGGTAATCCGTATTTGTT (site GGCCTAGCTAA)”, the “recombinant UMI read abundance (log10)” value is 0.00975.

With “CGCCTAGCATGGACCGGTTTTCCCGGTAATCCGTATTTGTT (site TGCCTAGCTAA)”, the “recombinant UMI read abundance (log10)” value amounted to 0.00877.

“CGCGATTCATGGACCGGTTTTCCCGGTAATCCGTATTTGGA (site CGCGATTCTTC)”: the “recombinant UMI read abundance (log10)” value was 2.31.

In the case of “CGCGCGCCATGGACCGGTTTTCCCGGTAATCCGTATTTGTT (site CGCGCGCCTAA)”, the “recombinant UMI read abundance (log10)” value is 0.0124.

Take “CGCGGCCCATGGACCGGTTTTCCCGGTAATCCGTATTTGTT (site CACGGCCCTAA)”: the “recombinant UMI read abundance (log10)” value is 0.167.

As to “CGCGGCCCATGGACCGGTTTTCCCGGTAATCCGTATTTGTT (site CCCGGCCCTAA)”, the “recombinant UMI read abundance (log10)” value stood at 0.00728.

In the case of “CGCGGCCCATGGACCGGTTTTCCCGGTAATCCGTATTTGTT (site CGCGGCCCTAA)”, the “recombinant UMI read abundance (log10)” value is 0.202.

For “CGCGGCCCATGGACCGGTTTTCCCGGTAATCCGTATTTGTT (site CTCGGCCCTAA)”, the “recombinant UMI read abundance (log10)” value came to 0.00821.

Turning to “CGCGGCTCATGGACCGGTTTTCCCGGTAATCCGTATTTGGC (site CGCGGCTCTGC)”, the “recombinant UMI read abundance (log10)” value is 2.33.

As for “CGCGGTCCATGGACCGGTTTTCCCGGTAATCCGTATTTGCA (site CACGGTCCTTG)”, the “recombinant UMI read abundance (log10)” value was 0.

Take “CGCGGTCCATGGACCGGTTTTCCCGGTAATCCGTATTTGCA (site CCCGGTCCTTG)”: the “recombinant UMI read abundance (log10)” value stood at 0.3.

As for “CGCGGTCCATGGACCGGTTTTCCCGGTAATCCGTATTTGCA (site CGCGGTCCTTG)”, the “recombinant UMI read abundance (log10)” value stood at 1.12.

Take “CGCGGTCCATGGACCGGTTTTCCCGGTAATCCGTATTTGCA (site CTCGGTCCTTG)”: the “recombinant UMI read abundance (log10)” value came out at 0.

As to “CGCTAGGCATGGACCGGTTTTCCCGGTAATCCGTATTTGAC (site CGCTAGGCTGT)”, the “recombinant UMI read abundance (log10)” value was determined as 1.08.

Regarding “CGCTCATCATGGACCGGTTTTCCCGGTAATCCGTATTTGGT (site CGATCATCTAG)”, the “recombinant UMI read abundance (log10)” value is 0.393.

As for “CGCTCATCATGGACCGGTTTTCCCGGTAATCCGTATTTGGT (site CGCTCATCTAC)”, the “recombinant UMI read abundance (log10)” value amounted to 1.17.

With “CGGAAGACATGGACCGGTTTTCCCGGTAATCCGTATTTGCA (site AGGAAGACTTG)”, the “recombinant UMI read abundance (log10)” value was determined as 0.742.

Take “CGGAAGACATGGACCGGTTTTCCCGGTAATCCGTATTTGCA (site CGGAAGACTTG)”: the “recombinant UMI read abundance (log10)” value amounted to 1.73.

Take “CGGAAGACATGGACCGGTTTTCCCGGTAATCCGTATTTGCA (site GGGAAGACTTG)”: the “recombinant UMI read abundance (log10)” value is 0.

With “CGGAAGACATGGACCGGTTTTCCCGGTAATCCGTATTTGCA (site TGGAAGACTTG)”, the “recombinant UMI read abundance (log10)” value was 0.259.

Turning to “CGGAATACATGGACCGGTTTTCCCGGTAATCCGTATTTGTC (site CGGAATACTGA)”, the “recombinant UMI read abundance (log10)” value is 1.64.

In the case of “CGGAATACATGGACCGGTTTTCCCGGTAATCCGTATTTGTC (site CGGAATCCTAA)”, the “recombinant UMI read abundance (log10)” value was found to be 0.0129.

As to “CGGAATCCATGGACCGGTTTTCCCGGTAATCCGTATTTGGG (site CGGAATCCTAA)”, the “recombinant UMI read abundance (log10)” value is 0.

“CGGAATCCATGGACCGGTTTTCCCGGTAATCCGTATTTGGG (site CGGAATCCTCC)”: the “recombinant UMI read abundance (log10)” value was found to be 0.0126.

For “CGGAATTCATGGACCGGTTTTCCCGGTAATCCGTATTTGCT (site CGGAATCCTAA)”, the “recombinant UMI read abundance (log10)” value was 0.00849.

For “CGGAATTCATGGACCGGTTTTCCCGGTAATCCGTATTTGCT (site CGGAATTCTAG)”, the “recombinant UMI read abundance (log10)” value is 2.45.

As to “CGGACATCATGGACCGGTTTTCCCGGTAATCCGTATTTGAT (site CGGACATCTAA)”, the “recombinant UMI read abundance (log10)” value is 0.359.

“CGGACATCATGGACCGGTTTTCCCGGTAATCCGTATTTGAT (site CGGACATCTAC)”: the “recombinant UMI read abundance (log10)” value worked out at 0.605.
